Patent publication US10506759B2, “Rice seed treatment agent” (KUMIAI CHEMICAL INDUSTRY CO., LTD., priority 2015, dated 2019)
Like-named read-outs stand apart in the source and are kept apart here.

Key:
[1] = system: paddy rice; test: Test Example 1: germination rate of treated paddy seeds (pot test); type: in vivo
Method: (§1) Treatment of dried paddy seeds was carried out at a coating ratio of 0.5 (seeds:iron powder=1:0.5). More specifically, paddy seeds, an iron powder, and calcined gypsum were mixed and stirred together while spraying water thereon, using a coating machine according to a conventional method, to coat the seeds with the iron powder and the calcined gypsum. The outer layer of the coated seeds was further similarly coated with finishing calcined gypsum mixed with each of the paddy seed treatment agents containing the herbicidal active components shown in Tables 2 to 6.
In a 200-cm^2 plastic pot, paddy field soil was placed, and tillage was carried out, followed by sowing seeds of Echinochloa oryzicola and Scirpus juncoides on the soil surface. Then, tubers of Eleocharis kuroguwai in the germination state were buried in such a manner that tips of the sprouts in tubers are exposed to the outside of the soil surface. Four paddy seeds treated with each paddy seed treatment agent obtained in Preparation Example were sown, and water was gently introduced to allow flooding to a depth of 4 cm. On Day 7 after the sowing, the water was removed by suction. When the rice seedlings have grown to the one-leaf stage, flooding was allowed again to a depth of 4 cm. On Day 15 after the sowing, the germination rate of the paddy seeds and the growth-inhibitory effect on the weeds were judged. The germination rate of the paddy seeds is expressed as %, and the growth-inhibitory effect on the weeds is expressed as a value of 0 to 100 representing the degree of inhibition, wherein 0 represents no inhibition, and 100 represents complete death.

[2] = system: paddy rice; settings: in vivo, 22 days
Method: as §1
In a 200-cm^2 plastic pot, paddy field soil was placed, and tillage was carried out, followed by sowing seeds of Scirpus juncoides on the soil surface. Then, the seeds were covered with 0.5-cm thick soil. Subsequently, flooding was allowed to a depth of 4 cm, followed by sowing seeds of Monochoria vaginalis on the soil surface. When the Monochoria vaginalis reached the five-leaf stage, three paddy seeds treated with each paddy seed treatment agent obtained in Preparation Example were sown. […] The germination rate of the paddy seeds is expressed as %, and the growth-inhibitory effect on the weeds is expressed as a value of 0 to 100 representing the degree of inhibition, wherein 0 represents no inhibition, and 100 represents complete death.

[3] = system: Lindernia species; test: Test Example 2: growth-inhibitory effect on weeds (pot test); type: in vivo; settings: Table 6; spontaneously grown weeds; scale 0 to 100; Day 22 after sowing
Method: as §1
(§2) In a 200-cm^2 plastic pot, paddy field soil was placed, and tillage was carried out, followed by sowing seeds of Scirpus juncoides on the soil surface. Then, the seeds were covered with 0.5-cm thick soil. Subsequently, flooding was allowed to a depth of 4 cm, followed by sowing seeds of Monochoria vaginalis on the soil surface. When the Monochoria vaginalis reached the five-leaf stage, three paddy seeds treated with each paddy seed treatment agent obtained in Preparation Example were sown. On Day 22 after the sowing of paddy seeds, the germination rate of the paddy seeds and the growth-inhibitory effect on the weeds were judged. Since Lindernia species were spontaneously grown in the test field soil, the growth-inhibitory effect on the Lindernia species were also judged. The germination rate of the paddy seeds is expressed as %, and the growth-inhibitory effect on the weeds is expressed as a value of 0 to 100 representing the degree of inhibition, wherein 0 represents no inhibition, and 100 represents complete death.

[4] = system: Monochoria vaginalis; test: as above; type: in vivo; settings: Table 6; paddy seeds sown at five-leaf stage of weed; scale 0 to 100; Day 22 after sowing
Method: as §1, §2

[5] = system: Scirpus juncoides; test: as above; type: in vivo; settings: Table 6; scale 0 to 100 (complete death); Day 22 after sowing of paddy seeds
Method: as §1, §2

| Compound | Germination rate of paddy rice (%) ([1]; Table 2, iron-coated seeds treated with agent (a.i. g per 1 kg seeds as in row), Day 15 after sowing) | Germination rate of paddy rice (%) [2] [%] | Growth-inhibitory rate Lindernia species [3] | Growth-inhibitory rate Monochoria vaginalis [4] | Growth-inhibitory rate Scirpus juncoides [5] | Germination rate of paddy rice (%) ([1]; in vivo) |
| --- | --- | --- | --- | --- | --- | --- |
| COc1ccc(-n2c(=O)c(C(=O)C3C(=O)CCCC3=O)nc3c(Cl)cccc32)cc1 [Example 1, Fenquinotrione] | 100 | 100 | 95 | 95 | 98 |  |
| CS(=O)(=O)c1ccc(C(=O)C2C(=O)CCCC2=O)c(Cl)c1COCC1CCCO1 (stereo not shown) [compound 1, Tefuryltrione] |  |  |  |  |  | 50 |
| CS(=O)(=O)c1ccc(C(=O)C2=C(Sc3ccccc3)C3CCC(C3)C2=O)c(Cl)c1 (stereo not shown) [compound 2, Benzobicyclon] |  |  |  |  |  | 50 |
